How the values were obtained:
Assay in all cases: CA Inhibition Assay
Conditions in all cases: pH 7.5; 4 °C
Carbonic anhydrase 2 = Carbonic anhydrase 2 (Homo sapiens, UniProt P00918)
Experimental: (§1) An applied photophysics stopped-flow instrument has been used for assaying the CA catalyzed CO2 hydration activity. […] The CO2 concentrations ranged from 1.7 to 17mM for the determination of the kinetic parameters and inhibition constants. […] The uncatalyzed rates were determined in the same manner and subtracted from the total observed rates. Stock solutions of inhibitor (0.1mM) were prepared in distilled-deionized water and dilutions up to 0.01nM were done thereafter with distilled deionized water.

Carbonic anhydrase 1 = Carbonic anhydrase 1 (Homo sapiens, UniProt P00915)
Experimental: as §1

Carbonic anhydrase 12 = Carbonic anhydrase 12 (Homo sapiens, UniProt O43570)
Experimental: as §1

Chain of Carbonic anhydrase 12 (O43570 whole entry): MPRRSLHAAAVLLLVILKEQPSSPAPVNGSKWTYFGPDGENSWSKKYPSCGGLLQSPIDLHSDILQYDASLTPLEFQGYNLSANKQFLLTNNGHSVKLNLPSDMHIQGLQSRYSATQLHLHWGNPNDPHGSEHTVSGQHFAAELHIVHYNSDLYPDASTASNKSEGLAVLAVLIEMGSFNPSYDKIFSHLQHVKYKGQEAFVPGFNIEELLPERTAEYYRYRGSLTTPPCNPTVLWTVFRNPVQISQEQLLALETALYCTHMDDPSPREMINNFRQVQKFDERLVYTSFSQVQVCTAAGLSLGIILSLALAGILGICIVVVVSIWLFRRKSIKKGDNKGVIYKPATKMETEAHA
Chain of Carbonic anhydrase 1 (P00915 whole entry): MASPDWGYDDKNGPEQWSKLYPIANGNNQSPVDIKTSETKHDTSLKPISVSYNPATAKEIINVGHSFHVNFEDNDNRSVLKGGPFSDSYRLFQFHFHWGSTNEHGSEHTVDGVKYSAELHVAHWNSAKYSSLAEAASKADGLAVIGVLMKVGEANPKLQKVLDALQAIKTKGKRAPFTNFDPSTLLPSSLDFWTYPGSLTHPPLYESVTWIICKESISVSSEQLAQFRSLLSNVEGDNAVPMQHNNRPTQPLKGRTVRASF

Row | Ki (Carbonic anhydrase 2) | Ki (Carbonic anhydrase 1) | Ki (Carbonic anhydrase 12) | Structure (SMILES)
1 | > 200 µM | 4.8 µM | 4.3 µM | Cc1cc(=O)oc2cc(O)ccc12 [4-Methyl-7-hydroxycoumarin]
2 | > 200 µM | 8.2 µM | 3.3 µM | Cc1cc(=O)oc2cc3ccccc3cc12 [4-Methyl-2H-benzo[g]chromen-2-one (5)]

The remaining lines, values behind:

Row | Structure (SMILES) | Ki (Carbonic anhydrase 2) | Ki (Carbonic anhydrase 1) | Ki (Carbonic anhydrase 12)
3 | Cc1cc(=O)oc2c1ccc1ccccc12 [4-Methyl-2H-benzo[h]chromen-2-one (4)] | > 200 µM | 9 µM | 5.5 µM
4 | Cc1cc(=O)oc2cc(O)cc(O)c12 [Coumarin derivative, 1b] | – | 8.4 µM | 6.4 µM
5 | Cc1cc(=O)oc2c(O)c(O)ccc12 [7,8-Dihydroxy-4-methyl-2H-chromen-2-one (3)] | > 200 µM | 8.7 µM | 6.6 µM
